This note sets out measurements from patent publication US20230086702A1, “SUBSTITUTED 2-AMINO-PYRAZOLYL-[1,2,4]TRIAZOLO[1,5A]PYRIDINE DERIVATIVES AND USE THEREOF” (The Johns Hopkins University, priority 2019, published 2023).

The target of assay [1] is T1, DLK (Homo sapiens, UniProt Q12852).
T1 construct: 10 nM DLK, catalytic domain, Carna Biosiences; purchased Carna Biosciences ('Carna Biosiences' [sic])
T1 sequence (Q12852 125-366 limits assumed): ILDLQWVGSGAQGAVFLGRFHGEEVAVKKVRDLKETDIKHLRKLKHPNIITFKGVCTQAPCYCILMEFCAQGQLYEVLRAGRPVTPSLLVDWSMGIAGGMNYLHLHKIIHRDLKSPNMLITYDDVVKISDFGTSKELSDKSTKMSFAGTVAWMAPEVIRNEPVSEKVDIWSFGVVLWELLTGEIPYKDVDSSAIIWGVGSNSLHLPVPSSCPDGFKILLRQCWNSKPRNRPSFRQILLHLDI
Description: DLK biochemical assay (TR-FRET, MKK7 phosphorylation). The procedure:
(§1) DLK assay is a biochemical assay format designed to screen for inhibitors of DLK. Enzymatic activity of DLK is measured by monitoring phosphorylation of the physiological substrate MKK7 (MAP2K7, Dual specificity mitogen-activated protein kinase kinase 7). Phosphorylation is detected by a TR-FRET system whereby His-tagged MKK7 is labeled by a XL665-labeled anti-His antibody (FRET acceptor, emission 665 nm). DLK phosphorylates MKK7 at T275/S277, which is detected by an Eu-labeled anti-phospho-MKK7 (T275/S277) antibody (FRET donor, excitation 340 nm). Phosphorylation of MKK7 results in an increased TR-FRET signal (Ratio XL665-channel/Eu-channel) and inhibition of enzymatic activity of DLK decreases the TR-FRET signal.
Assay Protocol for 1536 MTP format: test compounds are predispensed (60 nl) in test plates; +3 μl DLK solution (10 nM DLK, catalytic domain, Carna Biosiences, 0.6 mM DTT in assay buffer); +2 μl substrate solution (15 nM MKK7, LDB; 60 μM ATP; 0.4 mM DTT in assay buffer); 90 min incubation at RT; +2 μl detection mix (5 nM XL665-labeled anti-His antibody, Cisbio; 0.1 nM Eu-labeled anti-phospho-MKK7 (T275/S277), Cisbio/Millipore in detection buffer); 16 h incubation at 37° C.; endpoint measurement BMG (HTRF).
Assay Protocol for 384 low volume MTP format: 1 μl of test compounds is pipetted into test plate; +5 μl DLK solution (10 nM DLK, catalytic domain, Carna Biosiences in assay buffer); +5 μl substrate solution (15 nM MKK7, LDB; 60 μM ATP, in assay buffer); 90 min incubation at RT; +9 μl detection mix (20 nM XL665-labeled anti-His antibody, Cisbio; 0.4 nM Eu-labeled anti-phospho-MKK7 (T275/S277), Cisbio/Millipore in detection buffer); 16 h incubation at 4° C.; endpoint measurement BMG (HTRF).
(§2) All indicated concentrations final concentrations.
(§3) Assay buffer (384 format): 50 mM Hepes pH 7.5, 10 mM MgCl2, 1 mM EGTA, 1 mM DTT, 0.01% Triton X-100, 0.01% BSA, 1:500 Smart Block.
(§4) Detection buffer: 25 mM Tris/HCl pH 7.5, 100 mM EDTA, 100 mM NaCl, 200 mM KF, 0.01% Tween 20, 1:500 Smart Block.
For orientation: In TR-FRET formats the signal depends on donor and acceptor labels being close together.

The target in assay [2] is T2, LZK (Homo sapiens, UniProt O43283).
T2 construct: 10 nM LZK, catalytic domain, Carna Biosiences in assay buffer; purchased Carna Biosciences ('Carna Biosiences' [sic])
T2 sequence (O43283 168-409 limits assumed): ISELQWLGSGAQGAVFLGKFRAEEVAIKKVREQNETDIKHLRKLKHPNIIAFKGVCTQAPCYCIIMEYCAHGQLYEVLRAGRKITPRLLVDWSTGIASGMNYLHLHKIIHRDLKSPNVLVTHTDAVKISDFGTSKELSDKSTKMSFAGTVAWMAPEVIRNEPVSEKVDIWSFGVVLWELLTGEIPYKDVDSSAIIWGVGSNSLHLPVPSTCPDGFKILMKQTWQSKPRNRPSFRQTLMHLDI
Briefly: LZK biochemical assay (TR-FRET, MKK7 phosphorylation). As for the experimental part: as §1, with “LZK” for “DLK”, “LZK.” for “DLK.”, “T275/S277” for “T275/S277,”
Assay Protocol for 384 low volume MTP format: 1 μl of test compound is pipetted into test plate; +5 μl LZK solution (10 nM LZK, catalytic domain, Carna Biosiences in assay buffer); +5 μl substrate solution (15 nM MKK7, LDB; 15 μM ATP, in assay buffer); 90 min incubation at RT; +5 μl detection mix (20 nM XL665-labeled anti-His antibody, Cisbio; 0.4 nM Eu-labeled anti-phospho-MKK7 (T275/S277), Cisbio/Millipore in detection buffer); 16 h incubation at 32° C.; endpoint measurement BMG (HTRF).
as §2, §3, §4

Molecules are shown by their SMILES.

By IC50 is commonly meant the concentration needed to halve the response being measured. As for `Nc1nc2c(-c3cnn(CC4CC4(F)F)c3)cc(-c3cnn(Cc4ccccc4)c3)cn2n1` (racemic) [II-89, 6-(1-Benzyl-1H-pyrazol-4-yl)-8-{1-[(2,2-difluorocyclopropyl)methyl]-1H-pyrazol-4-yl}[1,2,4]triazolo[1,5-a]pyridin-2-amine], the figures for the IC50 in assay [1] and in assay [2] were 12 nM and 39 nM, respectively.
For `CCC(c1ccc(C(F)(F)F)cc1)n1cc(-c2cc(-c3cnn(C)c3)c3nc(N)nn3c2)cn1` (racemic) [II-99, 8-(1-Methyl-1H-pyrazol-4-yl)-6-(1-{1-[4-(trifluoromethyl)phenyl]propyl}-1H-pyrazol-4-yl)[1,2,4]triazolo[1,5-a]pyridin-2-amine], in that order: 9.2 nM and 150 nM.
With `CCC(c1ccc(N2CCOCC2)cc1)n1cc(-c2cc(-c3cnn(CC(F)(F)F)c3)c3nc(N)nn3c2)cn1` (racemic) [II-102, 6-(1-{1-[4-(Morpholin-4-yl)phenyl]propyl}-1H-pyrazol-4-yl)-8-[1-(2,2,2-trifluoroethyl)-1H-pyrazol-4-yl][1,2,4]triazolo[1,5-a]pyridin-2-amine], the 50% inhibitory concentration (IC50) in assay [1] worked out at 5.7 nM; in assay [2], 140 nM.
In the case of `CCC(c1ccc(C(F)F)nc1)n1cc(-c2cc(-c3cnn(CC(F)(F)F)c3)c3nc(N)nn3c2)cn1` (racemic) [II-105, 6-(1-{1-[6-(Difluoromethyl)pyridin-3-yl]propyl}-1H-pyrazol-4-yl)-8-[1-(2,2,2-trifluoroethyl)-1H-pyrazol-4-yl][1,2,4]triazolo[1,5-a]pyridin-2-amine], the figures for the IC50 in assay [1] and in assay [2] were 9.4 nM and 42 nM, respectively.
As for `CCC(c1ccc(C(F)(F)F)nc1)n1cc(-c2cc(-c3cnn(CC(F)F)c3)c3nc(N)nn3c2)cn1` (racemic) [II-108, 8-[1-(2,2-Difluoroethyl)-1H-pyrazol-4-yl]-6-(1-{1-[6-(trifluoromethyl)pyridin-3-yl]propyl}-1H-pyrazol-4-yl)[1,2,4]triazolo[1,5-a]pyridin-2-amine], the IC50 in assay [1] was determined as 6.3 nM; in assay [2] it was 37 nM.
Taken in the same sequence, the figures for `CCC(c1ccc(C(F)(F)F)nc1)n1cc(-c2cc(-c3cnn(CC(F)(F)F)c3)c3nc(N)nn3c2)cn1` (racemic) [II-111, 8-[1-(2,2,2-trifluoroethyl)-1H-pyrazol-4-yl]-6-(1-{1-[6-(trifluoromethyl)pyridin-3-yl]propyl}-1H-pyrazol-4-yl)[1,2,4]triazolo[1,5-a]pyridin-2-amine] were 14 nM and 34 nM.
For `CCC(c1ccc(OC(F)(F)F)nc1)n1cc(-c2cc(-c3cnn(CC(F)(F)F)c3)n3nc(N)nc3c2)cn1` (racemic) [II-114, 5-[1-(2,2,2-Trifluoroethyl)-1H-pyrazol-4-yl]-7-(1-{1-[6-(trifluoromethoxy)pyridin-3-yl]propyl}-1H-pyrazol-4-yl)[1,2,4]triazolo[1,5-a]pyridin-2-amine], the figures for the IC50 in assay [1] and in assay [2] were 46 nM and 42 nM, respectively.
In the case of `Nc1nc2c(-c3cnn(CC(F)(F)F)c3)cc(-c3cnn(C(c4ccc(C(F)(F)F)nc4)C4CCOCC4)c3)cn2n1` (racemic) [II-117, 6-(1-{Tetrahydro-2H-pyran-4-yl[6-(trifluoromethyl)pyridin-3-yl]methyl}-1H-pyrazol-4-yl)-8-[1-(2,2,2-trifluoroethyl)-1H-pyrazol-4-yl][1,2,4]triazolo[1,5-a]pyridin-2-amine], the IC50 worked out at 3.8 nM in assay [1] and 29 nM in assay [2].
For the molecule `Nc1nc2cc(-c3cnn(C(c4ccc(C(F)(F)F)nc4)C4CCOCC4)c3)cc(-c3cn(CC(F)(F)F)c(=O)cn3)n2n1` (racemic) [II-194, 5-[2-Amino-7-(1-{tetrahydro-2H-pyran-4-yl[6-(trifluoromethyl)pyridin-3-yl]methyl}-1H-pyrazol-4-yl)[1,2,4]triazolo[1,5-a]pyridin-5-yl]-1-(2,2,2-trifluoroethyl)pyrazin-2(1H)-one], the IC50 in assay [1] came to 3.6 nM; in assay [2], 17 nM.
Turning to `CCC(c1ccc(C(F)(F)F)nc1)n1cc(-c2cc(-c3cc(CO)ccc3Cl)c3nc(N)nn3c2)cn1` (single isomer, unassigned) [II-2, {3-[2-Amino-6-(1-{1-[6-(trifluoromethyl)pyridin-3-yl]propyl}-1H-pyrazol-4-yl)[1,2,4]triazolo[1,5-a]pyridin-8-yl]-4-chlorophenyl}methanol], the IC50 in assay [1] worked out at 170 nM; in assay [2], 30 nM.
Consider `CCC(c1ccc(C(F)(F)F)nc1)n1cc(-c2cc(-c3cc(CO)ccc3Cl)c3nc(N)nn3c2)cn1` (single isomer, unassigned) [II-3, {3-[2-Amino-6-(1-{1-[6-(trifluoromethyl)pyridin-3-yl]propyl}-1H-pyrazol-4-yl)[1,2,4]triazolo[1,5-a]pyridin-8-yl]-4-chlorophenyl}methanol], for which the IC50 in assay [1] came out at 12 nM; in assay [2], 6.4 nM.
As to `Nc1nc2c(-c3cc(CO)ccc3Cl)cc(-c3cnn(C(c4ccc(C(F)(F)F)nc4)C4CCOCC4)c3)cn2n1` (single isomer, unassigned) [II-5, {3-[2-Amino-6-(1-{tetrahydro-2H-pyran-4-yl[6-(trifluoromethyl)pyridin-3-yl]methyl}-1H-pyrazol-4-yl)[1,2,4]triazolo[1,5-a]pyridin-8-yl]-4-chlorophenyl}methanol], the IC50 came to 2.3 nM in assay [1] and 1.7 nM in assay [2].
Regarding `Nc1nc2c(-c3cc(CO)ccc3Cl)cc(-c3cnn(C(c4ccc(C(F)(F)F)nc4)C4CCOCC4)c3)cn2n1` (single isomer, unassigned) [II-6, {3-[2-Amino-6-(1-{tetrahydro-2H-pyran-4-yl[6-(trifluoromethyl)pyridin-3-yl]methyl}-1H-pyrazol-4-yl)[1,2,4]triazolo[1,5-a]pyridin-8-yl]-4-chlorophenyl}methanol], the results for the IC50 in assay [1] and in assay [2] were 46 nM and 6.7 nM, respectively.
In the case of `CCC(c1ccc(C(F)(F)F)nc1)n1cc(-c2cc(-c3cccc(C(C)(C)O)c3)c3nc(N)nn3c2)cn1` (single isomer, unassigned) [II-8, 2-{3-[2-Amino-6-(1-{1-[6-(trifluoromethyl)pyridin-3-yl]propyl}-1H-pyrazol-4-yl)[1,2,4]triazolo[1,5-a]pyridin-8-yl]phenyl}propan-2-ol], the IC50 worked out at 3.7 nM in assay [1] and 7.9 nM in assay [2].
For `CCC(c1ccc(C(F)(F)F)nc1)n1cc(-c2cc(-c3cccc(C(C)(C)O)c3)c3nc(N)nn3c2)cn1` (single isomer, unassigned) [II-9, 2-{3-[2-Amino-6-(1-{1-[6-(trifluoromethyl)pyridin-3-yl]propyl}-1H-pyrazol-4-yl)[1,2,4]triazolo[1,5-a]pyridin-8-yl]phenyl}propan-2-ol], in that order: 1 nM and 2.3 nM.
